Tested on: clinical study subjects
Assay: Combined clinical studies, treatment-emergent adverse events
Type: in vivo, human
Excerpt: However, it also was observed from the combined clinical studies that the percent of treatment-emergent adverse events increased with an increasing unit dose of the compound of structural formula (I), as illustrated in the following table.

[1] = unit dose of about 1 to about 20 mg

With `CN1CC(=O)N2[C@H](c3ccc4c(c3)OCO4)c3[nH]c4ccccc4c3C[C@@H]2C1=O` [Compound 5, (6R-trans)-6-(1,3-benzodioxol-5-yl)-2,3,6,7,12,12a-hexahydro-2-methylpyrazino[1′,2′:1,6]pyrido[3,4-b]indole-1,4-dione] the “Treatment-Emergent Adverse Events (%): Back Pain” value (unit dose 2 mg) was 3%, the “Treatment-Emergent Adverse Events (%): Conjunctivitis” value (unit dose 2 mg) was 0% and the “Treatment-Emergent Adverse Events (%): Dyspepsia” value (unit dose 2 mg) was 3%. For the same molecule, the “Treatment-Emergent Adverse Events (%): Eyelid Edema” value (unit dose 2 mg) was 0%, the “Treatment-Emergent Adverse Events (%): Flushing” value (unit dose 2 mg) was 0% and the “Treatment-Emergent Adverse Events (%): Headache” value (unit dose 2 mg) was 12%. For the same molecule, the “Treatment-Emergent Adverse Events (%): Myalgia” value (unit dose 2 mg) was 0%, the “Treatment-Emergent Adverse Events (%): Rhinitis” value (unit dose 2 mg) was 7% and the “Treatment-Emergent Adverse Events (%): Vision Abnormalities” value (unit dose 2 mg) was 0%. For the same molecule, the “Treatment-Emergent Adverse Events (%): Back Pain” value (unit dose 5 mg) was 3%, the “Treatment-Emergent Adverse Events (%): Conjunctivitis” value (unit dose 5 mg) was 1% and the “Treatment-Emergent Adverse Events (%): Dyspepsia” value (unit dose 5 mg) was 14%. For the same molecule, the “Treatment-Emergent Adverse Events (%): Eyelid Edema” value (unit dose 5 mg) was 0%, the “Treatment-Emergent Adverse Events (%): Flushing” value (unit dose 5 mg) was 0% and the “Treatment-Emergent Adverse Events (%): Headache” value (unit dose 5 mg) was 10%. The “Treatment-Emergent Adverse Events (%): Myalgia” value (unit dose 5 mg) was 3%, the “Treatment-Emergent Adverse Events (%): Rhinitis” value (unit dose 5 mg) was 3% and the “Treatment-Emergent Adverse Events (%): Vision Abnormalities” value (unit dose 5 mg) was 0%. For the same molecule, the “Treatment-Emergent Adverse Events (%): Back Pain” value (unit dose 10 mg) was 15%, the “Treatment-Emergent Adverse Events (%): Conjunctivitis” value (unit dose 10 mg) was 1% and the “Treatment-Emergent Adverse Events (%): Dyspepsia” value (unit dose 10 mg) was 13%. For the same molecule, the “Treatment-Emergent Adverse Events (%): Eyelid Edema” value (unit dose 10 mg) was 1%, the “Treatment-Emergent Adverse Events (%): Flushing” value (unit dose 10 mg) was <1% and the “Treatment-Emergent Adverse Events (%): Headache” value (unit dose 10 mg) was 23%. For the same molecule, the “Treatment-Emergent Adverse Events (%): Myalgia” value (unit dose 10 mg) was 9%, the “Treatment-Emergent Adverse Events (%): Rhinitis” value (unit dose 10 mg) was 4% and the “Treatment-Emergent Adverse Events (%): Vision Abnormalities” value (unit dose 10 mg) was 0%. The “Treatment-Emergent Adverse Events (%): Back Pain” value (unit dose 25 mg) was 18%, the “Treatment-Emergent Adverse Events (%): Conjunctivitis” value (unit dose 25 mg) was 0% and the “Treatment-Emergent Adverse Events (%): Dyspepsia” value (unit dose 25 mg) was 19%. For the same molecule, the “Treatment-Emergent Adverse Events (%): Eyelid Edema” value (unit dose 25 mg) was 1%, the “Treatment-Emergent Adverse Events (%): Flushing” value (unit dose 25 mg) was 0% and the “Treatment-Emergent Adverse Events (%): Headache” value (unit dose 25 mg) was 29%. For the same molecule, the “Treatment-Emergent Adverse Events (%): Myalgia” value (unit dose 25 mg) was 16%, the “Treatment-Emergent Adverse Events (%): Rhinitis” value (unit dose 25 mg) was 4% and the “Treatment-Emergent Adverse Events (%): Vision Abnormalities” value (unit dose 25 mg) was 0%. The “Treatment-Emergent Adverse Events (%): Back Pain” value (unit dose 50 mg) was 24%, the “Treatment-Emergent Adverse Events (%): Conjunctivitis” value (unit dose 50 mg) was 2% and the “Treatment-Emergent Adverse Events (%): Dyspepsia” value (unit dose 50 mg) was 20%. The “Treatment-Emergent Adverse Events (%): Eyelid Edema” value (unit dose 50 mg) was 2%, the “Treatment-Emergent Adverse Events (%): Flushing” value (unit dose 50 mg) was 3% and the “Treatment-Emergent Adverse Events (%): Headache” value (unit dose 50 mg) was 34%. For the same molecule, the “Treatment-Emergent Adverse Events (%): Myalgia” value (unit dose 50 mg) was 20%, the “Treatment-Emergent Adverse Events (%): Rhinitis” value (unit dose 50 mg) was 0% and the “Treatment-Emergent Adverse Events (%): Vision Abnormalities” value (unit dose 50 mg) was 0%. For the same molecule, the “Treatment-Emergent Adverse Events (%): Back Pain” value (unit dose 100 mg) was 22%, the “Treatment-Emergent Adverse Events (%): Conjunctivitis” value (unit dose 100 mg) was 5% and the “Treatment-Emergent Adverse Events (%): Dyspepsia” value (unit dose 100 mg) was 25%. The “Treatment-Emergent Adverse Events (%): Eyelid Edema” value (unit dose 100 mg) was 3%, the “Treatment-Emergent Adverse Events (%): Flushing” value (unit dose 100 mg) was 7% and the “Treatment-Emergent Adverse Events (%): Headache” value (unit dose 100 mg) was 46%. The “Treatment-Emergent Adverse Events (%): Myalgia” value (unit dose 100 mg) was 29%, the “Treatment-Emergent Adverse Events (%): Rhinitis” value (unit dose 100 mg) was 2% and the “Treatment-Emergent Adverse Events (%): Vision Abnormalities” value (unit dose 100 mg) was 0%. For the same molecule, the flushing [1] was “flushing was essentially eliminated” and the vision abnormalities [1] was “no vision abnormalities were reported”.

Source: patent US6451807B1, “Methods of treating sexual dysfunction in an individual suffering from a retinal disease, class 1 congestive heart failure, or myocardial infarction using a PDE5 inhibitor” (Lilly Icos, LLC., priority 1999, dated 2002)
